We go through 2 compounds from patent US20220339178A1, “COMPOSITIONS AND METHODS FOR COGNITIVE PROTECTION OF POLLINATORS AGAINST PESTICIDES” (priority 2019, published 2022).

The test system of one test is AChE. As to conditions: literature report; cited from earlier work.
The subject of test [1] is butyrylcholinesterase (BChE). Particulars: literature report; cited from earlier work.
Test [2] deals with Honeybees (Apis mellifera scutellata). The test is described as follows: Classical conditioning of the proboscis extension response (PER): learning, 24 h memory retention, latency; flavonoids vs imidacloprid. The format is in vivo. As for the experimental part:
Honeybees (Apis mellifera scutellata) were captured from established hives at the Apiary of the Pontificia Universidad Javeriana (Bogota, Colombia). Foragers were collected while leaving to forage between 8:00 am and 10:00 am (Matsumoto et al., J Neurosci Methods. 211(1):159-67. 2012). Bees were maintained in individual plastic chambers under laboratory conditions (photoperiod followed seasonal pattern; relative humidity: 63%; temperature: 18° C.). Food was provided once a day in a volume of 20 μL and varied in composition according to experimental treatments.
Control (2M sugar water): fed once a day (20 μL) for three consecutive days;
Quercetin (6.6 mM quercetin (Sigma-Aldrich: Q4951)-sucrose-water with DMSO 1% (Sigma-Aldrich: D8418): fed once a day for three days;
Rutin (1 mM rutin (Sigma-Aldrich R5143)-sucrose-water with DMSO 1%: fed once a day for three days;
Imidacloprid (1.16 nM Imidacloprid (Bayer)-sucrose-water: fed as a single dose (20 μL) 1.5 h before training;
Quercetin-Imidacloprid: bees received the quercetin treatment (see above) and were fed Imidacloprid 1.5 h before training; and
Rutin-Imidacloprid: bees received the rutin treatment (see above) and were fed Imidacloprid 1.5 h before training.
Bees were trained using classical conditioning of the proboscis extension response (PER), a broadly used method to study learning and memory in bees. Briefly, bees received a soft current of clean air for 15 seconds to allow bees to accommodate. Then a soft current of 1-hexanol (Sigma-Aldrich: 471402) was injected for 10 seconds. Six seconds after injection of 1-hexanol, one of the antennae was stimulated with sucrose water (50% w/w), which leads to the reflexive extension of the proboscis, and the bee was allowed to drink for 4 seconds. Thus, the reward and the stimulus overlapped for four seconds. This sequence, recognized as a training trial, was repeated eight times. Time was determined using a metronome (2 Hz). Memory retention was tested 24 hours after the eight training trials. […] 12 bees were trained each session. Training was conducted by an experimenter blind to treatment.
Learning was assessed from the total number of conditioned responses across the eight trials. Thus, each bee received a learning score between 0-7 (by definition, bees cannot show a learned response at the first trial). After 24 h, memory retention was assessed as the response to the presentation of 1-hexanol without a sucrose reward. Latency of response was quantified as the time between the onset of 1-hexanol stimulation and the onset of a response that led to a full extension of proboscis. Only bees being responsive to sucrose water across all training trials and the memory retention test were considered for analyses. Learning scores were compared across treatments using a Mann-Whitney test as data were not normally distributed (Shapiro-Wilk W test for the hypothesis that the data is from a Normal distribution: P<0.05 for all treatments). Comparisons of the learning score of bees across all treatments relative to Control bees were conducted using the Steel method adjusted as one or two-tailed tests. Additional post hoc comparisons were performed between Imid and Quer+Imid bees and between Imid and Rut+Imid bees. Memory retention was compared across groups using an overall Chi-Square test and independent tests for planned comparisons were performed using adjusted Wald tests for proportions. In all cases error due to multiple comparisons was controlled using the False Discovery Rate one stage method and adjusted p-values (q-values) are presented (Benjamini & Hochberg, Journal of the Royal Statistical Society. Series B (Methodological), 57(1):289-300. 1995; Pike, N., Methods in Ecology and Evolution, 2(3):278-282. 2011). All analyses were conducted using JMP v.14.0 (SAS Institute Inc). […]

For the compound `C=CC(C)(C)c1c2c(c(O)c3c(=O)c4ccc(O)c(O)c4oc13)C=CC(C)(C)O2` [macluraxanthone], the “inhibition of AChE” value in the test with AChE is “concentration-dependent inhibition ability”. The “inhibition of butyrylcholinesterase (BChE)” value in test [1] is reported as “concentration-dependent inhibition ability”.
Consider `O=c1c(O)c(-c2ccc(O)c(O)c2)oc2cc(O)cc(O)c12` [Quercetin], for which, in test [2] (conditioned PER after 24 h), the “memory retention, proportion difference relative to Control bees (Adjusted Wald test)” value is listed as −0.13. The “latency of response during learning acquisition relative to Control bees” value in test [2] (honey bees) was “not significantly different from Control”. In test [2] (honey bees prophylactically fed flavonoid for three days, then imidacloprid 1.5 h before training), the “learning scores relative to bees in the Imid group” value is given as “significantly higher learning scores”. In addition, in test [2] (honey bees, 8 trials, score 0-7, quercetin 6.6 mM or rutin 1 mM once a day for three days, imidacloprid 1.16 nM 20 μL 1.5 h before training), the “learning scores relative to Control bees” value is “significantly higher learning scores”. For the same compound, the “inhibition of AChE” value with AChE was “concentration-dependent inhibition ability”. Also, the “inhibition of butyrylcholinesterase (BChE)” value in test [1] was “concentration-dependent inhibition ability”.
